Results taken from patent US11525018B2, “Methods of preparing compositions for containers and other articles and methods of using same” (SWIMC LLC, priority 2014, dated 2022).

Test system: MCF-7, clone WS8, cells
Test: MCF-7 cell proliferation assay of estrogenic activity
Type: cell-based, human
Details: logarithmic (base 10) Relative Proliferative Effect vs 17-beta estradiol (EC50 ratio times 100), cell proliferation as total DNA; values 'expected or measured'
From the text: The MCF-7 assay is a useful test for assessing whether a polyhydric phenol compound is appreciably non-estrogenic. The MCF-7 assay uses MCF-7, clone WS8, cells to measure whether and to what extent a substance induces cell proliferation via estrogen receptor (ER)-mediated pathways. The method is described in “Test Method Nomination: MCF-7 Cell Proliferation Assay of Estrogenic Activity” submitted for validation by CertiChem, Inc. to the National Toxicology Program Interagency Center for the Evaluation of Alternative Toxicological Methods (NICEATM) on Jan. 19, 2006 (available online at http://iccvam.niehs.nih.gov/methods/endocrine/endodocs/SubmDoc.pdf).
A brief summary of the method of the aforementioned MCF-7 assay is provided below. MCF-7, clone WS8, cells are maintained at 37° C. in RMPI (or Roswell Park Memorial Institute medium) containing Phenol Red (e.g., GIBCO Catalog Number 11875119) and supplemented with the indicated additives for routine culture. An aliquot of cells maintained at 37° C. are grown for 2 days in phenol-free media containing 5% charcoal stripped fetal bovine serum in a 25 cm^2 tissue culture flask. Using a robotic dispenser such as an epMotion 5070 unit, MCF-7 cells are then seeded at 400 cells per well in 0.2 ml of hormone-free culture medium in Corning 96-well plates. The cells are adapted for 3 days in the hormone-free culture medium prior to adding the chemical to be assayed for estrogenic activity. The media containing the test chemical is replaced daily for 6 days. At the end of the 7-day exposure to the test chemical, the media is removed, the wells are washed once with 0.2 ml of HBSS (Hanks' Balanced Salt Solution), and then assayed to quantify amounts of DNA per well using a micro-plate modification of the Burton diphenylamine (DPA) assay, which is used to calculate the level of cell proliferation.
RPE is the ratio between the EC50 of the test chemical and the EC50 of the control substance 17-beta estradiol times 100, where EC50 is “effective concentration 50%” or half-maximum stimulation concentration for cell proliferation measured as total DNA in the MCF-7 assay.

Structure (SMILES) | Log RPE
C[C@]12CC[C@@H]3c4ccc(O)cc4CC[C@H]3[C@@H]1CC[C@@H]2O [17β-estradiol, reference compound] | 2.00
Oc1ccc(Cc2ccc(O)cc2)cc1 [Bisphenol F, reference compound] | −2
O=S(=O)(c1ccc(O)cc1)c1ccc(O)cc1 [Bisphenol S, reference compound] | −2
O=C(OCC1CCC(COC(=O)c2cccc(O)c2)CC1)c1cccc(O)c1 (stereo not shown) [Example 2, Run III, bis(3-hydroxybenzoate) of Cyclohexanedimethanol] | less than −4
O=c1c(-c2ccc(O)cc2)coc2cc(O)cc(O)c12 [Genistein, reference compound] | −2
Cc1cc(C(C)(C)c2cc(C)c(O)c(C)c2)cc(C)c1O [Structure 1] | −2
Cc1cc(CCc2cc(C)c(O)c(C)c2)cc(C)c1O [Structure 2] | −3
CC(c1ccc(O)cc1)(c1ccc(O)cc1)c1ccc(O)cc1 [Structure 3] | −3
CC(c1ccccc1)(c1ccc(O)cc1)c1ccc(O)cc1 [Structure 4] | −3
CC(C(=O)O)(c1ccc(O)cc1)c1ccc(O)cc1 [Structure 5] | less than −4
Cc1cc(Cc2cc(C)c(O)c(C)c2)cc(C)c1O [Structure 6] | less than −4
CCCC(c1cc(C(C)(C)C)c(O)cc1C)c1cc(C(C)(C)C)c(O)cc1C [Structure 7] | less than −4
Cc1cc(Cc2cc(C)cc(C(C)(C)C)c2O)c(O)c(C(C)(C)C)c1 [Structure 9] | less than −4
CC(C)(c1ccc(O)cc1)c1ccc(C(C)(C)c2ccc(O)cc2)cc1 [Structure 10] | less than −4
Oc1ccccc1Cc1ccccc1O [Structure 11] | less than −4
CC(C)(C)c1cc(O)c(C(C)(C)C)cc1O [Structure 12] | less than −4
Cc1cc(Cc2cc(C)cc(C3(C)CCCCC3)c2O)c(O)c(C2(C)CCCCC2)c1 [Structure 13] | less than −4
CCc1cc(Cc2cc(CC)cc(C(C)(C)C)c2O)c(O)c(C(C)(C)C)c1 [Structure 15] | less than −4
CC(C)(c1cc(Br)c(O)c(Br)c1)c1cc(Br)c(O)c(Br)c1 [Structure 16] | −3
C/C=C(/C(=C/C)c1ccc(O)cc1)c1ccc(O)cc1 [dienestrol, reference compound] | about 2
CC/C(=C(/CC)c1ccc(O)cc1)c1ccc(O)cc1 [diethylstilbestrol, reference compound] | about 2

Molecular target: T1, human estrogen receptor (Homo sapiens, UniProt P03372)
T1 sequence (P03372 1-595): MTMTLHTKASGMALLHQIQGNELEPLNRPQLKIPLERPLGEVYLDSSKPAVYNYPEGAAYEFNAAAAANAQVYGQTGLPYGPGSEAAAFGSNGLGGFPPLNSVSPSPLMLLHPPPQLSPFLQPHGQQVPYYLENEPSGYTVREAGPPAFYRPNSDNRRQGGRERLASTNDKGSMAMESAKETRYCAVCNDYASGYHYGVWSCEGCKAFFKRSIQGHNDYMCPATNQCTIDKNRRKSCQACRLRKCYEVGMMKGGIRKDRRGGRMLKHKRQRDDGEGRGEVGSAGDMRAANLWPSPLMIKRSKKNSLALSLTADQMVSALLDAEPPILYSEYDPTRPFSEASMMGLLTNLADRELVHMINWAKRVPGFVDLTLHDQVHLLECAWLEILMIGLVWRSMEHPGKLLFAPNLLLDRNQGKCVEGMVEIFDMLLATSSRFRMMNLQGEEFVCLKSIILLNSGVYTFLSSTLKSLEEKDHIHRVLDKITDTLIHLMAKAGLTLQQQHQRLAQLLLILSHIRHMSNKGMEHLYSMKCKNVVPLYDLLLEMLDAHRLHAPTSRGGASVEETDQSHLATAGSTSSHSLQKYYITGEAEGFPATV
Test: suitable in vitro assay correlated to the MCF-7 assay (estrogenic activity)
Type: cell-based
Details: in vitro assay whose results are directly correlated to the MCF-7 assay through common reference compounds

Structure (SMILES) | estrogenic activity
Cc1cc(Cc2cc(C)c(O)c(C)c2)cc(C)c1O [Structure 6, 4,4′-methylenebis(2,6-dimethylphenol)] | do not exhibit appreciable estrogenic activity
CCCC(c1cc(C(C)(C)C)c(O)cc1C)c1cc(C(C)(C)C)c(O)cc1C [Structure 7, 4,4′-butylidenebis(2-t-butyl-5-methylphenol)] | do not exhibit appreciable estrogenic activity
CC(C)(C)c1cc(Cc2cc(C(C)(C)C)c(O)c(C(C)(C)C)c2)cc(C(C)(C)C)c1O [Structure 8, 4,4′-methylenebis(2,6-di-t-butylphenol)] | do not exhibit appreciable estrogenic activity
Cc1cc(Cc2cc(C)cc(C(C)(C)C)c2O)c(O)c(C(C)(C)C)c1 [Structure 9] | do not exhibit appreciable estrogenic activity
CC(C)(C)c1cc(O)c(C(C)(C)C)cc1O [Structure 12, 2,5-di-t-butylhydroquinone] | do not exhibit appreciable estrogenic activity

Test system: not listed separately
Test: suitable genotoxicity assays (e.g., Ames II assay)
Details: not given
Procedure: A solution of 4,4′-methylenebis(2,6-di-t-butylphenol) (500 grams, 1.076 moles obtained from Albemarle Corporation) in anhydrous dimethylformamide (1.5 liters) was cooled to −10° C. and a solution of sodium tert-pentoxide (374 grams, 3.23 moles) in anhydrous dimethylformamide (1.5 liters) was added drop wise at −10 to −5° C. The mixture was stirred for 30 minutes at −10° C. Epichlorohydrin (1.9 liters, 24.2 moles) was added via dropping funnel at −10 to −5° C. The solution was allowed to warm up to room temperature and then was heated for 16 hours at a temperature of from 75 to 82° C. After cooling down to ambient temperature, the mixture was added to cold tap water (12 liters). Ethyl acetate (5 liters) was added to the mixture, which was stirred for 10 minutes and separated. The aqueous layer was extracted again with additional ethyl acetate (3 liters). The combined ethyl acetate extracts were washed twice with brine (2×6 liters), dried over anhydrous sodium sulfate (600 grams), and filtered. The solvent was removed under reduced pressure to give 887 grams of crude product as a purple oil. The crude product was dissolved in toluene (600 milliliters) and passed over a silica gel pad (1.4 kilograms), and eluted with a mixture of toluene and heptane (8 parts toluene to 2 parts heptane). The fractions containing product were combined and evaporated under reduced pressure. […]

Structure (SMILES) | genotoxicity
CC(C)(C)c1cc(Cc2cc(C(C)(C)C)c(OCC3CO3)c(C(C)(C)C)c2)cc(C(C)(C)C)c1OCC1CO1 (stereo not shown) [Diglycidyl ether of 4,4′-methylenebis(2,6-di-tert-butylphenol)] | non-genotoxic
CCCC(c1cc(C(C)(C)C)c(OCC2CO2)cc1C)c1cc(C(C)(C)C)c(OCC2CO2)cc1C (stereo not shown) [Diglycidyl ether of 4,4′Butylidenebis(2-t-butyl-5-methylphenol))] | non-genotoxic
